The values below come from ChEMBL document CHEMBL5505999, “Discovery of anti-inflammatory agents from 3, 4-dihydronaphthalene-1(2H)-one derivatives by inhibiting NLRP3 inflammasome activation” (Eur J Med Chem, 2024).

Data set [1] concerns RAW264.7. As to the kind of experiment: Anti-inflammatory activity in mouse RAW264.7 cells assessed as inhibition of LPS-induced IL-6 production at 2.5 uM pretreated with compound for 2 hrs followed by LPS addition and measured after 22 hrs by ELISA relative to control. The class given is functional. The note with it: time 24 hrs.
Data set [2] concerns RAW264.7. Description: Anti-inflammatory activity in mouse RAW264.7 cells assessed as inhibition of LPS-induced TNF-alpha production at 2.5 uM pretreated with compound for 2 hrs followed by LPS addition and measured after 22 hrs by ELISA relative to control. The following applies: time 24 hrs. The class given is functional. (In general: An ELISA detects its analyte on a solid surface through an enzyme-linked reagent.)

Data set [3] in a line: Cytotoxicity against mouse RAW264.7 cells assessed as survival rate at 2.5 uM incubated overnight by CCK-8 assay relative to control. The data set is classed as toxicity, cell-based. The following applies: read-out: Survival. In general terms: Formazan colour is commonly taken as a measure of viable cells.
The test system of data set [4] is RAW264.7. As to the kind of experiment: Anti-inflammatory activity in mouse RAW264.7 cells assessed as inhibition of LPS-induced IL-6 production at 10 uM pretreated with compound for 2 hrs followed by LPS addition and measured after 22 hrs by ELISA relative to control. The data set is classed as functional. The note with it: time 24 hrs.
The test system of data set [5] is RAW264.7. Description: Anti-inflammatory activity in mouse RAW264.7 cells assessed as inhibition of LPS-induced TNF-alpha production at 10 uM pretreated with compound for 2 hrs followed by LPS addition and measured after 22 hrs by ELISA relative to control. The class given is functional. The following applies: time 24 hrs.

On to `COc1ccc2c(c1)C(=O)/C(=C/c1ccc(N3CCOCC3)cc1)CC2`, for which the inhibition at 2.5 µM in the data set with RAW264.7 [1] stood at 47.2%; with RAW264.7 [2] it was 30.5%. For the same compound, in data set [3], the viability at 2.5 µM worked out at 82.2%.
The matching figures for `CN1CCN(c2ccc(/C=C3\CCc4cc(F)ccc4C3=O)cn2)CC1`: 49.3%, 32.8% and 98.2%.
The like results for `O=C1/C(=C/c2ccc(N3CCOCC3)nc2)CCc2ccc(Br)cc21` were, in that order, 36.1%, 23.8% and 96.2%.
The matching figures for `O=C1/C(=C/c2ccc(N3CCOCC3)cc2)CCc2cc(F)ccc21`: 48.7%, 32.1% and 81.1%.
Take `S=C(S)N1CCCC1` [PYRROLIDINE DITHIOCARBAMATE]: the values for the inhibition at 10 µM in the data set on RAW264.7 [4] and in the data set with RAW264.7 [5] were 48% and 36%, respectively.
Turning to `CN1CCN(c2ccc(/C=C3\CCc4ccc(O)cc4C3=O)nc2)CC1`, the values for the inhibition at 2.5 µM in the data set with RAW264.7 [1] and in the data set with RAW264.7 [2] were 56.7% and 41.6%, respectively. In addition, the viability at 2.5 µM in data set [3] came out at 98.6%.
Take `COc1ccc2c(c1)C(=O)/C(=C/c1ccc(N3CCOCC3)nc1)CC2`: the inhibition at 2.5 µM in the data set with RAW264.7 [1] stood at 44.3%; with RAW264.7 [2], 27.6%. In data set [3], the viability at 2.5 µM was found to be 82.4%.
The like results for `O=C1/C(=C/c2ccc(-n3ccnc3)cc2)CCc2ccc(Br)cc21` were, in that order, 55.3%, 39.8% and 91.2%.
The matching figures for `CN1CCN(c2ccc(/C=C3\CCc4cc(Br)ccc4C3=O)nc2)CC1`: 55.9%, 40.6% and 96.8%.
In the case of `CN1CCN(c2ccc(/C=C3\CCc4cc(Br)ccc4C3=O)cc2)CC1`, the values for the inhibition at 2.5 µM in the data set on RAW264.7 [1] and in the data set on RAW264.7 [2] were 53.3% and 42.4%, respectively. In data set [3], the viability at 2.5 µM came out at 87%.
The matching figures for `COc1ccc2c(c1)CC/C(=C\c1ccc(N3CCN(C)CC3)nc1)C2=O`: 55%, 39.6% and 88.9%.
Take `COc1ccc2c(c1)CC/C(=C\c1ccc(-n3ccnc3)cc1)C2=O`: the inhibition at 2.5 µM worked out at 48.2% with RAW264.7 [1] and 31.7% in the data set with RAW264.7 [2]. In addition, the viability at 2.5 µM in data set [3] came out at 92.8%.
The matching figures for `O=C1/C(=C/c2ccc(-n3ccnc3)cc2)CCc2ccc(O)cc21`: 50.2%, 25.3% and 87.1%.
Consider `O=C1/C(=C/c2ccc(-n3ccnc3)cc2)CCc2ccc(F)cc21`, for which the results for the inhibition at 2.5 µM in the data set on RAW264.7 [1] and with RAW264.7 [2] were 34.3% and 19%, respectively. The viability at 2.5 µM in data set [3] amounted to 98%.
The matching figures for `O=C1/C(=C/c2ccc(N3CCOCC3)cc2)CCc2ccc(F)cc21`: 46.2%, 29.5% and 82.7%.
The matching figures for `COc1ccc2c(c1)C(=O)/C(=C/c1ccc(N3CCN(C)CC3)nc1)CC2`: 51.1%, 34.7% and 84.9%.
The like results for `COc1ccc2c(c1)C(=O)/C(=C/c1ccc(N3CCN(C)CC3)cn1)CC2` were, in that order, 51.6%, 35.3% and 89%.
As for `CN1CCN(c2ccc(/C=C3\CCc4ccc(O)cc4C3=O)cn2)CC1`, the values for the inhibition at 2.5 µM with RAW264.7 [1] and with RAW264.7 [2] were 66.6% and 55.9%, respectively. The viability at 2.5 µM in data set [3] is 85.5%.
The matching figures for `O=C1/C(=C/c2ccc(N3CCOCC3)cc2)CCc2cc(Br)ccc21`: 46.4%, 29.6% and 92.8%.
The matching figures for `CN1CCN(c2ccc(/C=C3\CCc4ccc(F)cc4C3=O)nc2)CC1`: 47.2%, 30.5% and 93.5%.
The matching figures for `CN1CCN(c2ccc(/C=C3\CCc4cc(F)ccc4C3=O)cc2)CC1`: 48.4%, 37.1% and 90.5%.
As to `CN1CCN(c2ccc(/C=C3\CCc4ccc(F)cc4C3=O)cn2)CC1`, the inhibition at 2.5 µM in the data set with RAW264.7 [1] is 51.6%; in the data set on RAW264.7 [2], 35.3%. In addition, the viability at 2.5 µM in data set [3] was 88.7%.
The like results for `O=C1/C(=C/c2ccc(-n3ccnc3)cc2)CCc2cc(Br)ccc21` were, in that order, 49%, 32.4% and 82.6%.
The matching figures for `O=C1/C(=C/c2ccc(N3CCOCC3)nc2)CCc2cc(F)ccc21`: 47.7%, 31% and 85.2%.
The matching figures for `COc1ccc2c(c1)CC/C(=C\c1ccc(N3CCOCC3)cc1)C2=O`: 53.1%, 31.6% and 89.3%.
For `COc1ccc2c(c1)C(=O)/C(=C/c1ccc(N3CCN(C)CC3)cc1)CC2`, the inhibition at 2.5 µM in the data set with RAW264.7 [1] was 50.1%; with RAW264.7 [2], 33.6%. Moreover, in data set [3], the viability at 2.5 µM was found to be 98%.
As for `O=C1/C(=C/c2ccc(-n3ccnc3)cc2)CCc2cc(F)ccc21`, the inhibition at 2.5 µM in the data set with RAW264.7 [1] amounted to 54.9%; in the data set with RAW264.7 [2] it was 39.4%. For the same compound, the viability at 2.5 µM in data set [3] was found to be 80.7%.
The matching figures for `O=C1/C(=C/c2ccc(N3CCOCC3)nc2)CCc2ccc(O)cc21`: 48%, 30.8% and 104%.
For the compound `O=C1/C(=C/c2ccc(N3CCOCC3)cc2)CCc2ccc(O)cc21`, the inhibition at 2.5 µM came to 48.9% with RAW264.7 [1] and 32.3% with RAW264.7 [2]. Further, in data set [3], the viability at 2.5 µM came to 81.6%.
The matching figures for `CN1CCN(c2ccc(/C=C3\CCc4cc(Br)ccc4C3=O)cn2)CC1`: 54.7%, 39% and 87.8%.
For the compound `CN1CCN(c2ccc(/C=C3\CCc4ccc(O)cc4C3=O)cc2)CC1`, the inhibition at 2.5 µM in the data set on RAW264.7 [1] worked out at 56.3%; with RAW264.7 [2], 41.1%. In addition, in data set [3], the viability at 2.5 µM came to 103%.
`COc1ccc2c(c1)CC/C(=C\c1ccc(N3CCOCC3)nc1)C2=O`: the inhibition at 2.5 µM in the data set with RAW264.7 [1] was 59.2%; with RAW264.7 [2], 45%. Also, the viability at 2.5 µM in data set [3] is 96%.
Take `COc1ccc2c(c1)C(=O)/C(=C/c1ccc(-n3ccnc3)cc1)CC2`: the inhibition at 2.5 µM in the data set on RAW264.7 [1] was determined as 55.3%; with RAW264.7 [2] it was 39.8%. Also, the viability at 2.5 µM in data set [3] amounted to 88.7%.
As for `O=C1/C(=C/c2ccc(N3CCOCC3)cc2)CCc2ccc(Br)cc21`, the inhibition at 2.5 µM was 38.6% with RAW264.7 [1] and 22.4% in the data set on RAW264.7 [2]. In addition, the viability at 2.5 µM in data set [3] turned out to be 82.7%.
The matching figures for `CN1CCN(c2ccc(/C=C3\CCc4ccc(F)cc4C3=O)cc2)CC1`: 57.3%, 37.3% and 91.5%.
On to `CN1CCN(c2ccc(/C=C3\CCc4ccc(Br)cc4C3=O)cc2)CC1`, for which the inhibition at 2.5 µM in the data set on RAW264.7 [1] came out at 62.6%; in the data set with RAW264.7 [2], 49.8%. In addition, in data set [3], the viability at 2.5 µM stood at 116%.
The like results for `O=C1/C(=C/c2ccc(N3CCOCC3)nc2)CCc2ccc(F)cc21` were, in that order, 40.2%, 23.8% and 99.8%.
The matching figures for `CN1CCN(c2ccc(/C=C3\CCc4ccc(Br)cc4C3=O)cn2)CC1`: 63.4%, 51% and 104%.
The like results for `O=C1/C(=C/c2ccc(N3CCOCC3)nc2)CCc2cc(Br)ccc21` were, in that order, 47.5%, 31.4% and 86.2%.
On to `COc1ccc2c(c1)C(=O)/C(=C/c1ccc(OC)c(C(F)(F)F)c1)CC2`, for which the inhibition at 2.5 µM in the data set on RAW264.7 [1] was determined as 44.2%; with RAW264.7 [2] it was 51%. For the same compound, the viability at 2.5 µM in data set [3] was determined as 114%.
For `COc1ccc2c(c1)CC/C(=C\c1ccc(N3CCN(C)CC3)cc1)C2=O`, the values for the inhibition at 2.5 µM with RAW264.7 [1] and with RAW264.7 [2] were 50.9% and 34.6%, respectively. Moreover, the viability at 2.5 µM in data set [3] was 91.3%.

One may read the inhibition as the share of the control response that was lost under treatment.
